{
  "source": "patent US12076304B2",
  "about": "“Compositions comprising 15-HEPE and methods of treating or preventing hematologic disorders, and/or related diseases” (priority 2020, dated 2024)",
  "key": {"[1]": {"test_system": "α-SMA mRNA", "assay": "BDL mice liver quantitative RT-PCR, Alpha-SMA", "format": "in vivo", "settings": "for Alpha-SMA relative mRNA expression level: BDL mice liver, normalized to 36B4, Sham 1.00, mean ± SD", "experimental": "(§1) Quantitative RT-PCR: Total ribonucleic acid (RNA) was extracted from liver samples using RNAiso (Takara Bio, Japan) according to the manufacturer's instructions. One μg of RNA was reverse-transcribed using a reaction mixture containing 4.4 mM magnesium chloride (MgCl2) (F. Hoffmann-La Roche, Switzerland), 40 U RNase inhibitor (Toyobo, Japan), 0.5 mM dNTP (Promega, USA), 6.28 μM random hexamer (Promega), 5× first strand buffer (Promega), 10 mM dithiothreitol (Invitrogen, USA) and 200 U MMLV-RT (Invitrogen) in a final volume of 20 μL. The reaction was carried out for 1 hour at 37° C., followed by 5 minutes at 99° C. Real-time PCR was performed using real-time PCR DICE and TB Green™ Premix Ex Taq™ II (Takara Bio). To calculate the relative mRNA expression level, the expression of each gene (α-SMA, TIMP-1, TGF-β and Collagen Type 1) was normalized to that of reference gene 36B4 (gene symbol: Rplp0). Information regarding the PCR-primer sets and the plate layout are described in Tables 8 and 9."}, "[2]": {"test_system": "NAFLD patients", "assay": "Phase IIa study in NAFLD patients: ALP and liver fibrosis markers", "format": "in vivo, human", "settings": "2 g", "experimental": "(§2) The study was planned to include 96 evaluable patients with 32 patients randomized per treatment group.\nClinical Laboratory Safety Tests: Safety tests were performed for hematology, serum biochemistry, coagulation, lipid profile, and urinalysis: Blood and urine samples were taken as per the Study Flow Chart in Table 19 for routine hematology, serum biochemistry, coagulation and urinalysis tests, along with a Lipid Profile. All samples were analyzed in the central laboratory. All subjects were fasted for a minimum of 8 hours prior to blood sampling. […]"}, "[3]": {"test_system": "TIMP-1 mRNA", "assay": "BDL mice liver quantitative RT-PCR, TIMP-1", "format": "in vivo", "settings": "for TIMP-1 relative mRNA expression level: BDL mice liver, normalized to 36B4, Sham 1.00, mean ± SD", "experimental": "as §1"}, "[4]": {"test_system": "NAFLD patients", "assay": "Phase IIa study in NAFLD patients: metabolic and glycemic parameters", "format": "in vivo, human", "experimental": "as §2\nHOMA-IR/Adipo-IR: HOMA-IR/Adipo-IR levels are a method of measuring insulin resistance. HOMA-IR is calculated by multiplying fasting plasma insulin (FPI) by fasting plasma glucose (FPG), then dividing by the constant 405. Adipo-IR is calculated by multiplying fasting non-esterified fatty acids (NEFA)×fasting insulin. Blood samples were taken to assess HOMA-IR and Adipo-IR at Visit 2/Baseline, Visit 3/Week 2, Visit 4/Week 4, Visit 6/Week 8, Visit 8/Week 12, Visit 10/Week16 and Follow up Visit 11/Week 20. All subjects were required to have been fasted for a minimum of 8 hours prior to blood sampling. If subjects had not fasted for a minimum of 8 hours, the duration of fasting time was recorded, and subjects encouraged to fast appropriately for the next clinical visit.\nExploratory analysis: The exploratory analysis included analysis of lipid and metabolic parameters including total cholesterol, triglycerides, very low-density lipoprotein cholesterol (VLDL-C), low density lipoprotein cholesterol (LDL-C), high density lipoprotein cholesterol (HDL-C), non-high-density lipoprotein cholesterol (non-HDL-C), remnant-like particle cholesterol (RLP-C), fasting glucose, insulin, free fatty acids and hemoglobin A1C (HbA1C). Additional exploratory analysis included high throughput lipidomics and proteomics."}, "[5]": {"test_system": "NAFLD patients", "assay": "Phase IIa study in NAFLD patients: OWL liver care test", "format": "in vivo, human", "text": "as §2\nOWL Liver Care is a test that was developed based on the plasma lipidomics in biopsy-confirmed NASH patients and provides high predictive values. OWL Liver Care has an area under the curve (AUC) of 0.88 for distinguishing NAFLD and normal liver patients and an AUC of 0.79 for distinguishing NAFLD without steatohepatitis and NASH patients."}, "[6]": {"test_system": "NAFLD patients", "assay": "Phase IIa study in NAFLD patients: adverse events", "format": "in vivo, human", "text": "as §2"}, "[7]": {"settings": "BDL mice, 500 mg/kg PO QD Day 0-13, 500 mg/kg"}, "[8]": {"settings": "BDL mice, DS102 treatment groups as a whole"}, "[9]": {"settings": "1 g or 2 g per day, baseline to Week 16 vs placebo"}, "[10]": {"settings": "1 g per day, baseline diagnosis NASH (19 at baseline)"}, "[11]": {"settings": "1 g per day, baseline diagnosis No NAFLD (4 at baseline)"}, "[12]": {"settings": "1 g per day, baseline diagnosis Steatosis (5 at baseline)"}, "[13]": {"settings": "2 g per day, baseline diagnosis NASH (12 at baseline)"}, "[14]": {"settings": "2 g per day, baseline diagnosis No NAFLD (3 at baseline)"}, "[15]": {"settings": "2 g per day, baseline diagnosis Steatosis (14 at baseline)"}},
  "note": "Entries after “also recorded” stand apart in the source; their conditions may differ.",
  "data": [
    {"substance": "15-HEPE [DS102]", "values": [
      {"measurement": "Alpha-SMA relative mRNA expression level", "setting": "[1]; 50 mg/kg PO QD Day 0-13", "value": "3.21 ± 1.67"},
      {"measurement": "Alpha-SMA relative mRNA expression level", "setting": "[1]; 250 mg/kg PO QD Day 0-13", "value": "2.66 ± 1.33"},
      {"measurement": "Alpha-SMA relative mRNA expression level", "setting": "[1]; 500 mg/kg PO QD Day 0-13", "value": "1.42 ± 0.75"},
      {"measurement": "α-SMA mRNA expression level compared with the Vehicle group", "setting": "[1]; [7]", "value": "tended to decrease; also recorded: trend approaching significance"},
      {"measurement": "α-SMA mRNA expression level, Vehicle group vs the DS102 treatment groups", "setting": "[1]; [8]", "value": "no significant differences"},
      {"measurement": "alkaline phosphate (ALP)", "setting": "[2]", "value": "reduced"},
      {"measurement": "multiple markers for liver fibrosis", "setting": "[2]", "value": "reduced"},
      {"measurement": "TIMP-1 relative mRNA expression level", "setting": "[3]; 50 mg/kg PO QD Day 0-13", "value": "43.82 ± 26.19"},
      {"measurement": "TIMP-1 relative mRNA expression level", "setting": "[3]; 250 mg/kg PO QD Day 0-13", "value": "30.65 ± 16.80"},
      {"measurement": "TIMP-1 relative mRNA expression level", "setting": "[3]; 500 mg/kg PO QD Day 0-13", "value": "16.09 ± 10.16"},
      {"measurement": "TIMP-1 mRNA expression level compared with the Vehicle group", "setting": "[3]; [7]", "value": "tended to decrease; also recorded: trend approaching significance"},
      {"measurement": "TIMP-1 mRNA expression level, Vehicle group vs the DS102 treatment groups", "setting": "[3]; [8]", "value": "no significant differences"},
      {"measurement": "insulin sensitivity and glycemic control", "setting": "[4]; 1 g or 2 g per day, 16 weeks", "value": "improvement"},
      {"measurement": "markers of metabolic overload", "setting": "[4]; 1 g or 2 g per day, 16 weeks", "value": "statistically significant reduction"},
      {"measurement": "insulin resistance indices (HOMA-IR and adipo-IR levels)", "setting": "[4]; 1 g or 2 g per day, Week 16", "value": "improvement"},
      {"measurement": "HbA1c levels / glycemic control", "setting": "[4]; [9]", "value": "clinically significant improvements"},
      {"measurement": "insulin, glucose, and free fatty acid levels", "setting": "[4]; [9]", "value": "reduction"},
      {"measurement": "insulin resistance indices (HOMA-IR and adipo-IR levels)", "setting": "[4]; 2 g per day, Week 16, Per Protocol Set", "value": "significant improvements"},
      {"measurement": "OWL test Change in Diagnosis (Week 16 vs. baseline): Improvement, patients", "setting": "[5]; [10]", "value": 5},
      {"measurement": "OWL test Change in Diagnosis (Week 16 vs. baseline): Stable, patients", "setting": "[5]; [10]", "value": 14},
      {"measurement": "OWL test Change in Diagnosis (Week 16 vs. baseline): Stable, patients", "setting": "[5]; [11]", "value": 3},
      {"measurement": "OWL test Change in Diagnosis (Week 16 vs. baseline): Worsening, patients", "setting": "[5]; [11]", "value": 1},
      {"measurement": "OWL test Change in Diagnosis (Week 16 vs. baseline): Stable, patients", "setting": "[5]; [12]", "value": 2},
      {"measurement": "OWL test Change in Diagnosis (Week 16 vs. baseline): Worsening, patients", "setting": "[5]; [12]", "value": 3},
      {"measurement": "OWL test Change in Diagnosis (Week 16 vs. baseline): Improvement, patients", "setting": "[5]; [13]", "value": 5},
      {"measurement": "OWL test Change in Diagnosis (Week 16 vs. baseline): Stable, patients", "setting": "[5]; [13]", "value": 7},
      {"measurement": "OWL test Change in Diagnosis (Week 16 vs. baseline): Stable, patients", "setting": "[5]; [14]", "value": "2*, **"},
      {"measurement": "OWL test Change in Diagnosis (Week 16 vs. baseline): Worsening, patients", "setting": "[5]; [14]", "value": 1},
      {"measurement": "OWL test Change in Diagnosis (Week 16 vs. baseline): Improvement, patients", "setting": "[5]; [15]", "value": 1},
      {"measurement": "OWL test Change in Diagnosis (Week 16 vs. baseline): Stable, patients", "setting": "[5]; [15]", "value": 9},
      {"measurement": "OWL test Change in Diagnosis (Week 16 vs. baseline): Worsening, patients", "setting": "[5]; [15]", "value": 4},
      {"measurement": "OWL liver care diagnosed NASH", "setting": "[5]; NAFLD patients, dose dependent, vs placebo at Week 16", "value": "significantly improved and normalized"},
      {"measurement": "Death, patients n", "setting": "[6]; 1 g (n = 32)", "value": 0},
      {"measurement": "Patients with ≥1 AE related to study drug, %", "setting": "[6]; 1 g (n = 32)", "value": "(6.3) %"},
      {"measurement": "Patients with ≥1 AE, %", "setting": "[6]; 1 g (n = 32)", "value": "(59.4) %"},
      {"measurement": "Death, patients n", "setting": "[6]; 2 g (n = 30)", "value": 0},
      {"measurement": "Patients with ≥1 AE related to study drug, %", "setting": "[6]; 2 g (n = 30)", "value": "(10.0) %"},
      {"measurement": "Patients with ≥1 AE, %", "setting": "[6]; 2 g (n = 30)", "value": "(50.0) %"},
      {"measurement": "Patients with ≥1 SAE, %", "setting": "[6]; 2 g (n = 30)", "value": "(3.3) %"},
      {"measurement": "drug related serious adverse events (SAEs)", "setting": "[6]; NAFLD patients, 1 g or 2 g per day, 16 weeks", "value": "no drug related serious adverse events"},
      {"measurement": "safety and tolerance", "setting": "[6]; NAFLD patients, 1 g or 2 g per day, 16 weeks, compared to placebo", "value": "safe and well tolerated"}
    ]}
  ]
}
